PMC10157211, “Four new suomilides isolated from the cyanobacterium Nostoc sp. KVJ20 and proposal of their biosynthetic origin” (Frontiers in Microbiology, 2023)
pIC50: −log10 of the molar value.

Columns and labels:
[1] = Dissolution of isolated fractions in solvent; type: physicochemical
Description: Compounds 1–4 were isolated using mass-guided fractionation on preparative HPLC from 29.4 g dry mass of lyophilizated cyanobacteria from 10 L of culture. For the first purification step, the compounds were separated using a C18 reversed phase column. The collected fractions were reduced to dryness at 40°C in vacuo. […] The yields were: 1: 9.8 mg; 2: 4.1 mg; 3: 5.9 mg; 4: 2.6 mg.

trypsin = conditions: ref Pluotno and Carmeli, 2005; cited from earlier work
Source text: (§1) Compounds 5 and 6 were originally isolated via bioassay guided purification using a serine-protease inhibition assay when they were discovered in 2005 ([Pluotno and Carmeli, 2005]). The two banyasides were reported to inhibit the catalytic activity of trypsin. As far as we know, anti-bacterial activity of suomilide have not been reported previously, and the Nostoc sp. strain it has been isolated from was reported as non-toxic. This complies with our results, as no activity could be detected for 1–4 against bacteria or cell lines at high concentrations. Suomilide A has recently been investigate ...

prostate cancer cells = conditions: concentration of 3.3 μM; ref Ahmed et al., 2021; cited from earlier work
Source text: as §1

trypsin-3 = conditions: ref Ahmed et al., 2021, cited from earlier work
Source text: as §1

trypsin-2 = conditions: ref Ahmed et al., 2021; read-out: IC50 trypsin-2 inhibition; cited from earlier work
Source text: as §1

trypsin-1 = conditions: ref Ahmed et al., 2021; read-out: IC50 trypsin-1 inhibition; cited from earlier work
Source text: as §1

[2] = test system: cancer cell proliferation; conditions: ref Ahmed et al., 2021; cited from earlier work
Source text: as §1

Suomilide B [Compound 1]
solubility in DMSO (qualitative) ([1]; dried HPLC fraction dissolved in DMSO, after extensive shaking): well | solubility in methanol (qualitative) ([1]; dried HPLC fraction dissolved in methanol): dissolved poorly

banyaside A [Compound 5]
inhibition of the catalytic activity of trypsin (trypsin): inhibit

banyaside B [Compound 6]
inhibition of the catalytic activity of trypsin (trypsin): inhibit

suomilide [Suomilide A]
inhibition of invasion of prostate cancer cells (prostate cancer cells): inhibit the invasion | pIC50 (trypsin-3; read-out: IC50 trypsin-3 inhibition): 7.94 | residence time (trypsin-3; surface plasmon resonance spectroscopy): 57 min | pIC50 (trypsin-2): 8.33 | pIC50 (trypsin-1): 6.98 | effect on cancer cell proliferation [2]: no effect
